#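 96-well plates; 48 h exposure; 5 concentrations. Endpoints by linear interpolation between flanking doses. Not reached: highest tested concentration assigned. Here, GI50 denotes the concentration required for 50% inhibition of growth. TGI marks complete inhibition of growth.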
# How the values were obtained:
# Assay in all cases: NCI-60 cell line screen, 48 h
# COLO 205 colon = system: COLO 205 colon
# HCC-2998 colon = system: HCC-2998 colon
# HCT-116 colon = system: HCT-116 colon
# HT29 colon = system: HT29 colon
# K-562 leukemia = system: K-562 leukemia
# MDA-MB-231 breast = system: MDA-MB-231 breast
# NCI-H522 lung = system: NCI-H522 lung
# RXF 393 renal = system: RXF 393 renal
# SF-295 CNS = system: SF-295 CNS
# SK-MEL-28 melanoma = system: SK-MEL-28 melanoma
Structure (SMILES),GI50 (COLO 205 colon) [µM],TGI (COLO 205 colon) [µM],GI50 (HCC-2998 colon) [µM],TGI (HCC-2998 colon) [µM],GI50 (HCT-116 colon) [µM],TGI (HCT-116 colon) [µM],GI50 (HT29 colon) [µM],TGI (HT29 colon) [µM],GI50 (K-562 leukemia) [µM],TGI (K-562 leukemia) [µM],GI50 (MDA-MB-231 breast) [µM],TGI (MDA-MB-231 breast) [µM],GI50 (NCI-H522 lung) [µM],TGI (NCI-H522 lung) [µM],GI50 (RXF 393 renal) [µM],TGI (RXF 393 renal) [µM],GI50 (SF-295 CNS) [µM],TGI (SF-295 CNS) [µM],GI50 (SK-MEL-28 melanoma) [µM],TGI (SK-MEL-28 melanoma) [µM]
COc1ccc(-c2cc(-c3ccc(Nc4nc(Nc5ccc(Cl)cc5)nc(Nc5ccc(Cl)cc5)n4)cc3)nc(N)c2C#N)cc1,0.865,2.75,1.85,4.55,1.65,3.65,2.25,13,1.61,5.38,1.54,3.23,1.75,5.53,0.491,1.92,1.68,13.4,0.49,1.22
CCCCCCCCCCCCCCCCCCNC(=O)[C@H]1CSC(c2ccc(OC)c(F)c2)N1 (stereo not given in full),> 39.1,> 60.5,1.98,7.02,1.68,3.5,5.05,> 41.4,2,11.2,1.9,5.16,> 29.4,> 51.6,2.34,5.5,26,> 52.2,1.42,3.52
C[C@H]1[C@H](OC(=O)CCC(=O)O)O[C@@H]2O[C@]3(C)CC[C@H]4[C@H](C)CC[C@@H]1[C@@]24OO3,0.341,1.37,1.48,24,0.129,11.4,0.627,16.8,0.443,10,2.34,35.4,0.365,5.43,0.953,33,0.518,> 67.3,4.27,> 100
CCOC(=O)c1cnc(SCc2ccc(Cl)c(Cl)c2)nc1N1CC1,2.9,13.2,2.07,4.73,0.9,10.9,2.7,12.2,1.15,14.8,6.12,27.2,2.23,6.88,4.04,16.2,2.43,8.99,5.88,19.9
Cc1cc2c(C)c3cc(C)c(N)cc3nc2cc1N,0.581,3.31,1.12,4.91,0.383,6.14,0.373,2.09,0.548,4.96,1.09,3.48,0.527,2.02,1.16,4.42,0.909,4.87,2.69,10.5
N#C/C(=C\c1c(-c2ccccc2)[nH]c2ccccc12)C(=O)c1ccc(Cl)cc1,0.814,5.43,2.11,19.5,0.68,23.9,0.476,21.4,0.336,5.32,4.09,47.8,2.89,> 30,19.5,> 100,2.18,16.4,3.33,41.2
Nc1cccc2c1C(=O)N(C1CCC(=O)NC1=O)C2=O (stereo not given),> 100,> 100,> 100,> 100,> 100,> 100,> 100,> 100,> 100,> 100,> 100,> 100,> 100,> 100,> 100,> 100,> 100,> 100,> 100,> 100

# — PubChem BioAssay (NCI)
